“Also recorded” adds a separate entry of the source.
Assays:
PC6-3 cells [1] = assay: Flow cytometry with DCF-DA for hydrogen peroxide; type: cell-based, rat; conditions: 5 and 10 μM, 1 h, vs control cells
PC6-3 cells [2] = assay: Intracellular concentration in PC6-3 cells by HPLC; type: in vitro ADME, rat
PC6-3 cells [3] = assay: Flow cytometry with DHE for superoxide anion; type: cell-based, rat; conditions: 10 μM, 1 h incubation, vs control cells
[4] = target: T1, tyrosine hydroxylase (TH) (Rattus norvegicus, UniProt P04177); conditions: 1.0 μM; modified from previously published results; ref Mexas et al., 2011; cited from earlier work
T1 sequence (P04177 whole entry): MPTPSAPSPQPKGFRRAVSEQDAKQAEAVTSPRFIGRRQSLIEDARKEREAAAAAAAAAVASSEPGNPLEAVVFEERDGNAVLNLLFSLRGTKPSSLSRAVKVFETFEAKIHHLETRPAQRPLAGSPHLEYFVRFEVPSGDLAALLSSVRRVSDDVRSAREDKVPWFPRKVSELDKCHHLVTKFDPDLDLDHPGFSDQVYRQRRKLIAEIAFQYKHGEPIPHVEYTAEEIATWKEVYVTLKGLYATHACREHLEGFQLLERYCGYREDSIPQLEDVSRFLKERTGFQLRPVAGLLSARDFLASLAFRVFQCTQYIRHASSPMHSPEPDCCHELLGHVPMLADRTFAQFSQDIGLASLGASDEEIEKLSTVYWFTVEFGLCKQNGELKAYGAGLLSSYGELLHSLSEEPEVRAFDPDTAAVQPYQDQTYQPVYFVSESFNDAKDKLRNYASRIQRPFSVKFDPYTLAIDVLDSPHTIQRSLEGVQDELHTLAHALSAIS

[5] = target: T1, tyrosine hydroxylase (TH); assay: TH activity in whole dopaminergic PC6-3 cells; type: cell-based; conditions: for TH inhibition in PC6-3 cells: 2 h; for inhibition at 20 µM: read-out: TH inhibition in PC6-3 cells
BSA [6] = target: T2, BSA (Bos taurus, UniProt P02769); assay: Relative protein reactivity with BSA; conditions: 100 μM, BSA 1 mg/mL, 4 h, 37°C, compared to DOPAL
T2 sequence (P02769 25-607): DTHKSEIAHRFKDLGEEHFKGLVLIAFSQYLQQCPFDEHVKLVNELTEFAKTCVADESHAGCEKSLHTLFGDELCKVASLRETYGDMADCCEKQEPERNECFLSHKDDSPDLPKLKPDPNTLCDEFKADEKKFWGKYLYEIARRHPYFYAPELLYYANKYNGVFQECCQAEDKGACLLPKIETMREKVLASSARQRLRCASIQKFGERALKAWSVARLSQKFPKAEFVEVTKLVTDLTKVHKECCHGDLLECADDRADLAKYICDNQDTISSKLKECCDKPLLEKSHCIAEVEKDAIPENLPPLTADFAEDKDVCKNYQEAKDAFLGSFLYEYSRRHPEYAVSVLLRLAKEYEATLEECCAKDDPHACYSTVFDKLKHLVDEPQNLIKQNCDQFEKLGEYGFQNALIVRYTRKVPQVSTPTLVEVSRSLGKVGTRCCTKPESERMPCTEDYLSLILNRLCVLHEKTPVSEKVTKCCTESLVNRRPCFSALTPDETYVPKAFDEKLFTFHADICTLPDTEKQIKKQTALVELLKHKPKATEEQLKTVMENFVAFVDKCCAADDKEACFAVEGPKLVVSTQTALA

PC6-3 cells [7] = assay: MTT assay of mitochondrial function; type: cell-based; conditions: for change of mitochondrial function (MTT), in words: 5, 10, 25, 50 μM; for mitochondrial dysfunction: 50 μM
[8] = target: T1, tyrosine hydroxylase (TH); assay: TH activity in PC6-3 cell lysate; type: biochemical; conditions: read-out: inhibition of L-DOPA production in cell lysate
BSA [9] = target: T2, BSA; conditions: compared to DOPAL; ref Rees et al., 2009; cited from earlier work
[10] = 20 μM placed exogenously on PC6-3 cells

## O=CCc1ccc(O)c(O)c1 [DOPAL, 3,4-dihydroxyphenylacetaldehyde, reference compound]
PC6-3 cells [1]
  hydrogen peroxide production (DCF-DA): significantly less hydrogen peroxide than controls cells
PC6-3 cells [2]; rat, 5 μM, pH 7.4
  intracellular concentration: 4 to 5 µM
PC6-3 cells [3]
  superoxide anion production (DHE): significantly different from control cells
[4]
  TH inhibition in cell lysate: ~95%
[5]; 5 μM placed exogenously, intracellular 4–5 μM
  TH inhibition in PC6-3 cells: ~ 60%
[5]; DOPAL-treated cells vs control cells, data not shown
  decrease of DA concentration in PC6-3 cells: ~ 40%

## N#CCc1ccc(O)c(O)c1 [DHPAN, 3,4-Dihydroxyphenylacetonitrile]
BSA [6]
  Relative protein reactivity (NBT staining of BSA): no significant staining by NBT
PC6-3 cells [7]; 2 h, vs control cells
  change of mitochondrial function (MTT), in words: no significant loss of mitochondrial viability; also recorded: no changes to mitochondrial function; also recorded: no significant toxicity
[5]; 20 μM final concentration
  TH inhibition in PC6-3 cells: no significant TH inhibition

## O=CCC=O [MDA, Malondialdehyde, reference compound]
[5]; 5 μM, used to inhibit ALDH and AR, data not shown
  effect on TH activity: does not inhibit or alter TH activity

## O=CCc1ccccc1 [PAL, phenylacetaldehyde]
[8]
  inhibition at 20 µM: ~50%
BSA [9]
  times less protein reactivity than DOPAL: 10 times
PC6-3 cells [2]; [10]
  intracellular concentration: 9 to 12 µM
PC6-3 cells [7]; 10 μM, 2 h, vs control cells
  loss of mitochondrial viability: ~ 15%
PC6-3 cells [7]; 25 μM, vs controls
  loss of mitochondrial viability: ~ 15%
PC6-3 cells [7]; 2 h, vs control cells
  mitochondrial dysfunction: ~ 25%
  change of mitochondrial function (MTT), in words: some concentration-dependent dysfunction
[5]
  inhibition at 20 µM: ~50%

## COc1cc(CC=O)ccc1O [MOPAL, 3-methoxy-4-hydroxyphenylacetaldehyde]
[8]
  inhibition at 20 µM: ~50%
BSA [9]
  times less protein reactivity than DOPAL: 5 times
PC6-3 cells [2]; rat, 20 μM, pH 7.4
  intracellular concentration: 9 to 12 µM
PC6-3 cells [7]; 2 h, vs control cells
  mitochondrial dysfunction: ~ 25%
  change of mitochondrial function (MTT), in words: some concentration-dependent dysfunction
[5]
  inhibition at 20 µM: ~50%

## COc1ccc(CC=O)cc1OC [DMPAL, 3,4-Dimethoxyphenylacetaldehyde]
BSA [9]
  times less protein reactivity than DOPAL: 5 times
PC6-3 cells [2]; [10]
  intracellular concentration: ~ 9 μM
PC6-3 cells [7]; 2 h, vs control cells
  change of mitochondrial function (MTT), in words: no significant loss of mitochondrial viability; also recorded: no changes to mitochondrial function; also recorded: no significant toxicity
[5]
  inhibition at 20 µM: ~40%

Reference: publication PMC3428502 (Brain research, 2012)
